Laboratory results reported in patent US20240327382A1 (ALMAC DISCOVERY LIMITED, priority 2021, published 2024).

Target: T1, Full-length USP19 (Homo sapiens, UniProt O94966)
T1 construct: Full-length USP19 was purchased from Boston Biochem (E-576); purchased Boston Biochem E-576
T1 sequence (O94966 1-1318): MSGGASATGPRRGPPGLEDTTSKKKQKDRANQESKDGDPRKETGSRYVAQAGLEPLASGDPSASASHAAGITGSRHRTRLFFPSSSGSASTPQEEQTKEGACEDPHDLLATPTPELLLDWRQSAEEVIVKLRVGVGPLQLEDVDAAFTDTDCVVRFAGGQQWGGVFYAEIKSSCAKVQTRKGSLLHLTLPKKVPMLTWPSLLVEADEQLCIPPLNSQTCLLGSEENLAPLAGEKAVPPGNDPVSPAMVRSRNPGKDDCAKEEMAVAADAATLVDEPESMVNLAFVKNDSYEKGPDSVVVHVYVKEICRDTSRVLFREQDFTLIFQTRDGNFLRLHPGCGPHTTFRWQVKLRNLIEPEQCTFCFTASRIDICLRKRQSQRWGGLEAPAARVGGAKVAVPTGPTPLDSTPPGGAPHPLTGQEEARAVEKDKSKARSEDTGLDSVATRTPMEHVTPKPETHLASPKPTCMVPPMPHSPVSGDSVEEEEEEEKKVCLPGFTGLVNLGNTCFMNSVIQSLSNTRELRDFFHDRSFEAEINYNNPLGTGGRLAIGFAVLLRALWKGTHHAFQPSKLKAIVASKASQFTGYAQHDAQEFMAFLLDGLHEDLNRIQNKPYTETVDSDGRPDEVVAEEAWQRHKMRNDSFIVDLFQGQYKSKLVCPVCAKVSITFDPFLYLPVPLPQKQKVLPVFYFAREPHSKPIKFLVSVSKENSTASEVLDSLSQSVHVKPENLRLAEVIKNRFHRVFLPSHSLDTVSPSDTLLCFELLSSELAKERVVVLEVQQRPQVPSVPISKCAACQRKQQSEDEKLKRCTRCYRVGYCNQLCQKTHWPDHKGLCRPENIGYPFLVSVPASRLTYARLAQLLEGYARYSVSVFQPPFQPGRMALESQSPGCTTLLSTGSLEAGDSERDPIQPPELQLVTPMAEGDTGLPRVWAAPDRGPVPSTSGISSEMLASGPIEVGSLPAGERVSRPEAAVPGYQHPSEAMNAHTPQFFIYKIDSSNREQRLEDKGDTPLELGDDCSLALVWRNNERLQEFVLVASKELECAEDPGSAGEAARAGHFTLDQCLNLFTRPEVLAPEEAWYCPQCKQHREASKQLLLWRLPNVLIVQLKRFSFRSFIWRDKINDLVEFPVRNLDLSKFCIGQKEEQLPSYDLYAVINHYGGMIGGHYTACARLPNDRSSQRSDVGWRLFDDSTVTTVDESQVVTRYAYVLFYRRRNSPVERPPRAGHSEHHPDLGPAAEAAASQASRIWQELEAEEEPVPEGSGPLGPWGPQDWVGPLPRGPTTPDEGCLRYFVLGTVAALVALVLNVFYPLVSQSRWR
Experiment: USP19 fluorescence polarisation (FP) assay, Ubiquitin-Lys-TAMRA substrate
Assay type: biochemical
Conditions: average of at least two duplicate experiments
Summary of the method: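 Full-length human USP19 (added at 2.5 nM) was preincubated 30 min at RT with inhibitor (serial dilutions 200 μM to 2 μM) in 50 mM HEPES pH 7.4, 150 mM NaCl, 5 mM DTT, 0.05% BSA, 0.05% CHAPS. Ubiquitin-Lys-TAMRA isopeptide substrate (added at 500 nM) started the reaction, and FP (Ex 530/Em 575 nm) was read every 15 min over 90 min. IC50 came from non-linear regression of signal normalised to no-compound control, averaged over at least two duplicate experiments.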

Structure (SMILES) | IC50 [nM]
N[C@@H]1CCN(C(=O)N2CC[C@@H](Cn3cnc(-c4ccccc4)cc3=O)C3(CCCC3)C2)[C@H](c2cc(F)cc(F)c2)C1 [Example 107, 3-[[(10R)-7-[(2S,4R)-4-amino-2-(3,5-difluorophenyl)piperidine-1-carbonyl]-7-azaspiro[4.5]decan-10-yl]methyl]-6-phenyl-pyrimidin-4-one] | < 10
N[C@@H]1CCN(C(=O)N2CC[C@@H](Cn3ccc(-c4ccccc4)cc3=O)C3(CCCC3)C2)[C@H](c2cc(F)cc(F)c2)C1 [Example 108, 1-(((R)-7-((2S,4R)-4-Amino-2-(3,5-difluorophenyl)piperidine-1-carbonyl)-7-azaspiro[4.5]decan-10-yl)methyl)-4-phenylpyridin-2(1H)-one] | < 10
COc1ccccc1-c1cc(=O)n(C[C@@H]2CCN(C(=O)N3CC[C@@H](N4CCOCC4)C[C@H]3c3ccccc3)CC23CCCC3)cn1 [Example 110, 6-(2-Methoxyphenyl)-3-(((R)-7-((2S,4R)-4-morpholino-2-phenylpiperidine-1-carbonyl)-7-azaspiro[4.5]decan-10-yl)methyl)pyrimidin-4(3H)-one] | 10 to 100
O=C(N1CC[C@@H](Cn2ccc(-c3ccccc3)cc2=O)C2(CCCC2)C1)N1CC[C@@H](NC2(CF)COC2)C[C@H]1c1ccccc1 [Example 112, 1-(((R)-7-((2S,4R)-4-((3-(Fluoromethyl)oxetan-3-yl)amino)-2-phenylpiperidine-1-carbonyl)-7-azaspiro[4.5]decan-10-yl)methyl)-4-phenylpyridin-2(1H)-one] | 10 to 100
CN[C@@H]1CCN(C(=O)N2CC[C@@H](Cn3ccc(-c4ccccc4OC)cc3=O)C3(CCCC3)C2)[C@H](c2cc(F)ccc2F)C1 [Example 113, 1-(((R)-7-((2S,4R)-2-(2,5-Difluorophenyl)-4-(methylamino)piperidine-1-carbonyl)-7-azaspiro[4.5]decan-10-yl)methyl)-4-(2-methoxyphenyl)pyridin-2(1H)-one] | < 10
CN[C@@H]1CCN(C(=O)N2CC[C@@H](Cn3cnc(-c4ccccc4C)cc3=O)C3(CCCC3)C2)[C@H](c2cc(F)ccc2F)C1 [Example 114, 3-(((R)-7-((2S,4R)-2-(2,5-Difluorophenyl)-4-(methylamino)piperidine-1-carbonyl)-7-azaspiro[4.5]decan-10-yl)methyl)-6-(o-tolyl)pyrimidin-4(3H)-one] | < 10

Second part, the compound after the results:

IC50 [nM] | Structure (SMILES)
< 10 | COC(=O)CN[C@@H]1CCN(C(=O)N2CC[C@@H](Cn3cnc(-c4ccccc4)cc3=O)C3(CCCC3)C2)[C@H](c2ccccc2)C1 [Example 105, Methyl ((2S,4R)-1-((R)-10-((6-oxo-4-phenylpyrimidin-1(6H)-yl)methyl)-7-azaspiro[4.5]decane-7-carbonyl)-2-phenylpiperidin-4-yl)glycinate]
< 10 | O=C(O)CN[C@@H]1CCN(C(=O)N2CC[C@@H](Cn3cnc(-c4ccccc4)cc3=O)C3(CCCC3)C2)[C@H](c2ccccc2)C1 [Example 106, Sodium ((2S,4R)-1-((R)-10-((6-Oxo-4-phenylpyrimidin-1(6H)-yl)methyl)-7-azaspiro[4.5]decane-7-carbonyl)-2-phenylpiperidin-4-yl)glycinate]
< 10 | CN[C@@H]1CCN(C(=O)N2CC[C@@H](Cn3cnc(-c4ccccc4F)cc3=O)C3(CCCC3)C2)[C@H](c2ccccc2)C1 [Example 109, 6-(2-Fluorophenyl)-3-(((R)-7-((2S,4R)-4-(methylamino)-2-phenylpiperidine-1-carbonyl)-7-azaspiro[4.5]decan-10-yl)methyl)pyrimidin-4(3H)-one]
< 10 | CC1(N[C@@H]2CCN(C(=O)N3CC[C@@H](Cn4ccc(-c5ccccc5)cc4=O)C4(CCCC4)C3)[C@H](c3ccccc3)C2)COC1 [Example 111, 1-(((R)-7-((2S,4R)-4-((3-Methyloxetan-3-yl)amino)-2-phenylpiperidine-1-carbonyl)-7-azaspiro[4.5]decan-10-yl)methyl)-4-phenylpyridin-2(1H)-one]
